One block for each molecule: values may come before it. Starred links: 1 amine or outer side, 2 acyl side, 3 side chain; linkers in the order of their positions; H or OH if unused. Positions of bridges follow the written chain, without caps; N, C: chain ends. Non-standard residues stand in square brackets, D forms with d. Residues, ends and D or L forms follow the SMILES beside them. *: point of attachment. X1 = O=C([C@@H]1CCNc2c(N[*:1])cc3cc(O)c(O)cc3[n+]21)[*:2]; X4 = O=C([C@@H]1CCN=C2C(N[*:1])=Cc3cc(O)c(O)cc3N21)[*:2]; dOrn(N5-OH,N5-CHO) = N[C@H](CCCN(O)C=O)C(=O)O; Butanoyl(2-oxo,4-COOH) = O=C(O)CCC(=O)C(=O)*; X5 = O=CN(O)CCC[C@H](N[*:1])C(=O)[*:2]; d(aThr) = C[C@@H](O)[C@@H](N)C(=O)O; Suc = O=C(CCC(=O)[*:2])[*:1]; X2 = O=C1[C@@H](N*)CCCN1[O-]; Orn = NCCC[C@H](N)C(=O)O
Key:
Assay type in all cases: binding
[1] = target: negative control lipocalin SEQ ID NO: 64 (Homo sapiens, UniProt P80188, C107S/Q48H); test: SPR (Biacore T200), negative control SEQ ID NO: 64; conditions: 1200 nM
negative control lipocalin SEQ ID NO: 64, sequence (P80188 21-198 Q48H/C107S): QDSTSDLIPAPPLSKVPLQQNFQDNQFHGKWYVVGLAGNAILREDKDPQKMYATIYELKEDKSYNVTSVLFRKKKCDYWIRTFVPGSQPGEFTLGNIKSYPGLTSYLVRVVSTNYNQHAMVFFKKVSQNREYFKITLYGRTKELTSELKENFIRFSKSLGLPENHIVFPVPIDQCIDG
Procedure: (§1) In a Surface Plasmon Resonance (SPR) based assay a Biacore T200 instrument (GE Healthcare) was used to measure the binding affinity of muteins to pyoverdine I succinyl, -succinamid, -α-ketoglutaryl with complexed iron ion or to pyoverdine II succinyl, -succinamid, -α-ketoglutaryl with complexed iron ion or to pyoverdine III succinyl, -succinamid, -α-ketoglutaryl with complexed iron ion. Muteins selected for binding to pyoverdines and negative control (SEQ ID NO: 64) were biotinylated for 2 h at room temperature applying an appropriate excess of EZ-Link NHS-PEG4-Biotin (Thermo, […]) followed by separation of non-reacted Biotin using a Zeba Spin Desalting Plate (Thermo, […]) according to the manufactures instructions.
(§2) In the SPR affinity assay, biotinylated muteins and negative control were captured on a sensor chip CAP using the Biotin CAPture Kit (GE Healthcare): Sensor Chip CAP is pre-immobilized with an ssDNA oligo. Undiluted Biotin CAPture Reagent (streptavidin conjugated with the complementary ss-DNA oligo) was applied at a flow rate of 2 μl/min for 300 s. Subsequently, 1 μg/ml to 100 μg/mL of biotinylated muteins or negative control were applied for 300 s at a flow rate of 5 μl/min. The reference channel was loaded with Biotin CAPture Reagent only.
Applying a flow rate of 30 μl/min, a single cycle or multi cycle kinetics approach was used with a sample contact time of 120-180 s and a dissociation time of 900-2400 s. […] After ligand immobilization, for analysis using single cycle kinetics all 4-5 concentrations of Pvd were applied consecutively in ascending order before the dissociation was monitored. For analysis using multi cycle kinetics 4 dilutions of Pvd were applied, each followed a dissociation phase. All measurements were performed at 25° C. […] Data were evaluated with Biacore T200 Evaluation software (V 1.0). Double referencing was used. A 1:1 Binding model was used to fit the raw data. […]

[2] = target: T1, human lipocalin 2 (hNGAL) mutein SEQ ID NO: 32 (Homo sapiens, UniProt P80188, A60E/C107S/D97N/E64D/I61V/K145N/K154W/K93N/L123V/L56V/L90R/N116K/N85D/Q48H/Q69G/R101E/R92H/S147K/S88E/W99F/Y120N/Y126M/Y152G/Y72P); test: SPR (Biacore T200), mutein SEQ ID NO: 32; conditions: 25° C.
T1 construct: made in house; host or cells: E. coli
T1 sequence (P80188 21-198 with the stated changes): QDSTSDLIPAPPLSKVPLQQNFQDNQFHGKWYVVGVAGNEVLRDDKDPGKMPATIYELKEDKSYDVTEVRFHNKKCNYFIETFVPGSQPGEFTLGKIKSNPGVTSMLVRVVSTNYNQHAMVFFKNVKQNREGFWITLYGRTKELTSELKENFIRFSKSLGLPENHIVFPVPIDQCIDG
Procedure: (§4) In a Surface Plasmon Resonance (SPR) based assay a Biacore T200 instrument (GE Healthcare) was used to measure the binding affinity of muteins to pyoverdine I succinyl, -succinamid, -α-ketoglutaryl with complexed iron ion or to pyoverdine II succinyl, -succinamid, -α-ketoglutaryl with complexed iron ion or to pyoverdine III succinyl, -succinamid, -α-ketoglutaryl with complexed iron ion. Muteins selected for binding to pyoverdines and negative control (SEQ ID NO: 64) were biotinylated for 2 h at room temperature applying an appropriate excess of EZ-Link NHS-PEG4-Biotin (Thermo, Cat#21329) followed by separation of non-reacted Biotin using a Zeba Spin Desalting Plate (Thermo, Cat#21329) according to the manufactures instructions.

[3] = target: T2, human lipocalin 2 (hNGAL) mutein SEQ ID NO: 35 (Homo sapiens, UniProt P80188, A60T/C107S/D97H/K145I/K154W/K93R/L123T/L56V/L90R/N85Q/Q48H/Q69G/R101D/R92I/S147R/S88D/T74A/W99Y/Y126Q/Y152I/Y72N); test: SPR (Biacore T200), mutein SEQ ID NO: 35; conditions: for specificity and crossreactivity (binding): 2 μM for all analytes
T2 construct: made in house; host or cells: E. coli
T2 sequence (P80188 21-198 with the stated changes): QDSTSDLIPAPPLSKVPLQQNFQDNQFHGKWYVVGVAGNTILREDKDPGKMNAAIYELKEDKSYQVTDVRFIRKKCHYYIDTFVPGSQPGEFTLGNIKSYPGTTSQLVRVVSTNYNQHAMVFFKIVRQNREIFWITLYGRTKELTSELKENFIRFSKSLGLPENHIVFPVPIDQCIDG
Procedure: as §4

[4] = target: T3, human lipocalin 2 (hNGAL) mutein SEQ ID NO: 33 (Homo sapiens, UniProt P80188, A60E/C107S/D97N/E64D/I61V/K145N/K154W/K93N/L123V/L56V/L90R/N116K/N85Q/Q48H/Q69G/R101E/R92H/S147K/S88E/W99F/Y120N/Y126M/Y152G/Y72P); test: SPR (Biacore T200), mutein SEQ ID NO: 33; conditions: 25° C.
T3 construct: made in house; host or cells: E. coli
T3 sequence (P80188 21-198 with the stated changes): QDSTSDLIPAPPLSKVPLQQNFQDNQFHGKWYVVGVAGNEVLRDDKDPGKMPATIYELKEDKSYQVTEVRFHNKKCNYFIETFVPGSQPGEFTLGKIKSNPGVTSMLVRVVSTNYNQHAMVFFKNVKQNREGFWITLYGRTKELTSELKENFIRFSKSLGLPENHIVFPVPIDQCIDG
Procedure: as §4

[5] = target: T4, human lipocalin 2 (hNGAL) mutein SEQ ID NO: 43 (Homo sapiens, UniProt P80188, A60L/C107S/D97K/I61A/K154W/K93Q/L123Q/L56E/L90R/N116L/Q48H/Q69M/R101V/S147V/S88E/W99D/Y120D/Y126E/Y72M); test: SPR (Biacore T200), mutein SEQ ID NO: 43; conditions: 25° C.
T4 construct: made in house; host or cells: E. coli
T4 sequence (P80188 21-198 with the stated changes): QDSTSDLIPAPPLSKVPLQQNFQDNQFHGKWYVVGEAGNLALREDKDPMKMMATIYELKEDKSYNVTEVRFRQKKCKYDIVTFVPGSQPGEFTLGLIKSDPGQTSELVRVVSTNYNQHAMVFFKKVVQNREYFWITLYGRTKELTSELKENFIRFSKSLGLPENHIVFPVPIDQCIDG
Procedure: as §1, §2
(§3) Applying a flow rate of 30 μl/min, a single cycle or multi cycle kinetics approach was used with a sample contact time of 120-180 s and a dissociation time of 900-2400 s. […] After ligand immobilization, for analysis using single cycle kinetics all 4-5 concentrations of Pvd were applied consecutively in ascending order before the dissociation was monitored. For analysis using multi cycle kinetics 4 dilutions of Pvd were applied, each followed a dissociation phase. All measurements were performed at 25° C. […] Data were evaluated with Biacore T200 Evaluation software (V 1.0). Double referencing was used. A 1:1 Binding model was used to fit the raw data.

[6] = target: T5, human lipocalin 2 (hNGAL) mutein SEQ ID NO: 45 (Homo sapiens, UniProt P80188, A60L/C107S/D97K/I61A/K154W/K93H/L123Q/L56E/L90R/N116L/Q48H/Q69M/R101V/S147V/S88E/W99D/Y120D/Y126E/Y72M); test: SPR (Biacore T200), mutein SEQ ID NO: 45; conditions: 25° C.
T5 construct: made in house; host or cells: E. coli
T5 sequence (P80188 21-198 with the stated changes): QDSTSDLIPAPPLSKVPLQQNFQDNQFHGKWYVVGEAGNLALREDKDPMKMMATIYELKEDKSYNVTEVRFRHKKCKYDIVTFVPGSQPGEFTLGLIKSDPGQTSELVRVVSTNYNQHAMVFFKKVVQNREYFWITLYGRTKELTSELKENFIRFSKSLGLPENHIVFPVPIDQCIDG
Procedure: as §1, §2, §3

[7] = target: T6, human lipocalin 2 (hNGAL) mutein SEQ ID NO: 46 (G-N-I-K, positions 95-98, deleted) (Homo sapiens, UniProt P80188, A60L/C107S/D97Q/DEL115-118/I61A/K154W/K93Y/L123Q/L56E/L90R/Q48H/Q69K/R101V/S147V/S88E/W99D/Y120E/Y126E/Y152F/Y72M); test: SPR (Biacore T200), mutein SEQ ID NO: 46; conditions: 25° C.
T6 construct: made in house; host or cells: E. coli
T6 sequence (P80188 with tags, fused parts or gaps with the stated changes): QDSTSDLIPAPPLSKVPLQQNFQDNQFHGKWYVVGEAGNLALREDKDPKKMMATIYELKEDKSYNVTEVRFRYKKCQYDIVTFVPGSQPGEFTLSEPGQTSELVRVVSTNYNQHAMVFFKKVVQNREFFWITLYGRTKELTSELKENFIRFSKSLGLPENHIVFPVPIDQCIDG
Procedure: as §1, §2, §3

[8] = target: T7, human lipocalin 2 (hNGAL) mutein SEQ ID NO: 47 (Homo sapiens, UniProt P80188, A60L/C107S/D97K/I61A/K154W/K93H/L123Q/L56E/L62R/L90R/N116L/Q48H/Q69M/R101V/S125P/S147V/S88E/W99D/Y120D/Y126E/Y72M); test: SPR (Biacore T200), mutein SEQ ID NO: 47; conditions: 25° C.
T7 construct: made in house; host or cells: E. coli
T7 sequence (P80188 21-198 with the stated changes): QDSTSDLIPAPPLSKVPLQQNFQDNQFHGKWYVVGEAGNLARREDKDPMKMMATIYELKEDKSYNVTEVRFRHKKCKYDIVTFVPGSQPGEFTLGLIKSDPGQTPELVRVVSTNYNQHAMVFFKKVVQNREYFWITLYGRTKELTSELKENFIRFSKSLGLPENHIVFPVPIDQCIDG
Procedure: as §1, §2, §3

[9] = target: T8, human lipocalin 2 (hNGAL) mutein SEQ ID NO: 44 (Homo sapiens, UniProt P80188, A60L/C107S/D97K/I61T/K154W/K93R/L123Q/L56E/L90R/N116V/Q48H/Q69M/R101V/S147V/S88E/W99D/Y120D/Y126E/Y72M); test: SPR (Biacore T200), mutein SEQ ID NO: 44; conditions: 25° C.
T8 construct: made in house; host or cells: E. coli
T8 sequence (P80188 21-198 with the stated changes): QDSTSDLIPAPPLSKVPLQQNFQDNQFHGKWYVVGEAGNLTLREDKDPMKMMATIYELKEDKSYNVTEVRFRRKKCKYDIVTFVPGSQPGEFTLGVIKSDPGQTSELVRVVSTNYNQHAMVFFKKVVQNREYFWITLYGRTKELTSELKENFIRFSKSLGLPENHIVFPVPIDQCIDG
Procedure: as §1, §2, §3

[10] = target: T9, human lipocalin 2 (hNGAL) mutein SEQ ID NO: 49 (Homo sapiens, UniProt P80188, A60L/C107S/D65G/D97K/I61A/K154W/K66R/K93H/L123Q/L56E/L90R/N116L/Q48H/Q69M/R101V/S125P/S147V/S88E/W99D/Y120D/Y126E/Y72M); test: SPR (Biacore T200), mutein SEQ ID NO: 49; conditions: 25° C.
T9 construct: made in house; host or cells: E. coli
T9 sequence (P80188 21-198 with the stated changes): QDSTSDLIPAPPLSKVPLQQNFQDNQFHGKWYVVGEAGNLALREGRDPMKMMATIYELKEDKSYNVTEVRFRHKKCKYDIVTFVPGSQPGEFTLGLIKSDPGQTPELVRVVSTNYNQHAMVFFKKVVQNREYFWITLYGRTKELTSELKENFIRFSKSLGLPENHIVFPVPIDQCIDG
Procedure: as §1, §2, §3

[11] = target: T10, human lipocalin 2 (hNGAL) mutein SEQ ID NO: 48 (Homo sapiens, UniProt P80188, A60L/C107S/D67N/D97K/I61A/K154W/K93H/L123Q/L56E/L90R/N116L/Q48H/Q69M/R101V/S125P/S147V/S88E/T165P/W99D/Y120D/Y126E/Y72M); test: SPR (Biacore T200), mutein SEQ ID NO: 48; conditions: 25° C.
T10 construct: made in house; host or cells: E. coli
T10 sequence (P80188 21-198 with the stated changes): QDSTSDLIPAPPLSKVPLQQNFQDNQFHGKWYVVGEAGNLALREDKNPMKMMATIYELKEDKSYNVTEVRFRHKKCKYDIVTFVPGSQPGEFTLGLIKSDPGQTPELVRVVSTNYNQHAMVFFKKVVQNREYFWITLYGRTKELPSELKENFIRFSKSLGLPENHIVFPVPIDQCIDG
Procedure: as §1, §2, §3

SMILES: C[C@@H](O)[C@@H](NC(=O)CNC(=O)[C@H](CCCN)NC(=O)[C@@H](CCCN([O-])C=O)NC(=O)[C@@H](CO)NC(=O)[C@@H]1CCNc2c(NC(=O)CCC(=O)O)cc3cc([O-])c([O-])cc3[n+]21)C(=O)N[C@@H](CO)C(=O)N[C@H]1CCCN([O-])C1=O.[Fe+3] [Pvd II s (+Fe)] (Suc-[X1][dS][dOrn(N5-OH,N5-CHO)][Orn]G[d(aThr)]S-X2)
absence of binding to negative control [1]: absence of binding

SMILES: C[C@@H](O)[C@@H](NC(=O)CNC(=O)[C@H](CCCN)NC(=O)[C@@H](CCCN([O-])C=O)NC(=O)[C@@H](CO)NC(=O)[C@@H]1CCNc2c(NC(=O)C(=O)CCC(=O)O)cc3cc([O-])c([O-])cc3[n+]21)C(=O)N[C@@H](CO)C(=O)N[C@H]1CCCN([O-])C1=O.[Fe+3] [Pvd II aKG (+Fe)] ({Butanoyl(2-oxo,4-COOH)}-[X1][dS][dOrn(N5-OH,N5-CHO)][Orn]G[d(aThr)]S-X2)
Kd [2]: 3.44 nM
koff [2]: 0.000374 s⁻¹
kon [2]: 109000 M⁻¹ s⁻¹
Kd ([3]; 25° C.): 3.42 nM
koff ([3]; 25° C.): 0.000149 s⁻¹
kon ([3]; 25° C.): 43500 M⁻¹ s⁻¹
Kd [4]: 4.19 nM
koff [4]: 0.000416 s⁻¹
kon [4]: 99300 M⁻¹ s⁻¹

SMILES: NC(=O)CCC(=O)Nc1cc2cc([O-])c([O-])cc2[n+]2c1NCC[C@H]2C(=O)N[C@H](CO)C1=NCC[C@@H](C(=O)N[C@@H](CCCN([O-])C=O)C(=O)N[C@@H](CCC(N)=O)C(=O)N[C@H](CCC(N)=O)C(=O)N[C@H](CCCN([O-])C=O)C(=O)NCC(=O)O)N1.[Fe+3] [Pvd III sa (+Fe)]
Kd [5]: 3.04 nM
koff [5]: 0.000107 s⁻¹
kon [5]: 35200 M⁻¹ s⁻¹
Kd [6]: 3.03 nM
koff [6]: 9.91e-05 s⁻¹
kon [6]: 32700 M⁻¹ s⁻¹
Kd [7]: 1.58 nM
koff [7]: 6.9e-05 s⁻¹
kon [7]: 43600 M⁻¹ s⁻¹
Kd [8]: 0.2 nM
koff [8]: 2.52e-05 s⁻¹
kon [8]: 128000 M⁻¹ s⁻¹
Kd [9]: 2.94 nM
koff [9]: 8.9e-05 s⁻¹
kon [9]: 30300 M⁻¹ s⁻¹
Kd [10]: 0.84 nM
koff [10]: 0.000112 s⁻¹
kon [10]: 134000 M⁻¹ s⁻¹
Kd [11]: 0.64 nM
koff [11]: 9.51e-05 s⁻¹
kon [11]: 148000 M⁻¹ s⁻¹

SMILES: NC(=O)CC[C@H](NC(=O)[C@H](CCCN([O-])C=O)NC(=O)[C@@H]1CCN=C([C@@H](CO)NC(=O)[C@@H]2CCNc3c(NC(=O)C(=O)CCC(=O)O)cc4cc([O-])c([O-])cc4[n+]32)N1)C(=O)N[C@H](CCC(N)=O)C(=O)N[C@H](CCCN([O-])C=O)C(=O)NCC(=O)O.[Fe+3] [Pvd III aKG (+Fe)]
Kd [5]: 5.29 nM
koff [5]: 0.000303 s⁻¹
kon [5]: 57300 M⁻¹ s⁻¹
Kd [6]: 6.99 nM
koff [6]: 0.00033 s⁻¹
kon [6]: 47300 M⁻¹ s⁻¹
Kd [7]: 3.15 nM
koff [7]: 0.000241 s⁻¹
kon [7]: 76700 M⁻¹ s⁻¹
Kd [8]: 8.97 nM
koff [8]: 0.000262 s⁻¹
kon [8]: 29200 M⁻¹ s⁻¹
Kd [9]: 5.64 nM
koff [9]: 0.000271 s⁻¹
kon [9]: 48200 M⁻¹ s⁻¹
Kd [10]: 1.53 nM
koff [10]: 4.29e-05 s⁻¹
kon [10]: 28100 M⁻¹ s⁻¹
Kd [11]: 5.81 nM
koff [11]: 0.000158 s⁻¹
kon [11]: 27200 M⁻¹ s⁻¹

SMILES: C[C@@H](O)[C@@H]1NC(=O)[C@H](CCCN(O)C=O)NC(=O)[C@@H](NC(=O)[C@H](CCCN(O)C=O)NC(=O)[C@@H](CO)NC(=O)[C@H](CCCNC(=N)N)NC(=O)[C@@H](CO)NC(=O)[C@@H]2CCN=C3C(NC(=O)CCC(=O)O)=Cc4cc(O)c(O)cc4N32)CCCCNC(=O)[C@H]([C@@H](C)O)NC1=O.[Fe+3] [Pvd I s (+Fe)] (Suc-[X4][dS]R[dS][X5]K[X5]TT; lactam 6-C)
absence of binding to negative control [1]: absence of binding

SMILES: CN1[C@@H]([C@H]2CSC(c3ccccc3O)=N2)SC[C@H]1C(=O)O [Pyochelin, pyochelin]
specificity and crossreactivity (binding) [3]: absence of binding

specificity and crossreactivity (binding) [3]: absence of binding
SMILES: CC(=O)N(O)CCCCCNC(=O)CCC(=O)N(O)CCCCCNC(=O)CCC(=O)N(O)CCCCCN [Desferoxamin, desferoxamine, reference compound]

Source: patent US10329334B2 (SANOFI, priority 2015, dated 2019)
